# Measured values as given in patent publication US5616570A, “Use of non-absorbable synthetic sulfated polysaccharides to decrease cholesterol absorbtion” (priority 1994, dated 1997).
# Where two headings read alike, the source gives them in different places.
# Tests used:
# [1] = molecular target: 52 kDa human pancreatic triglyceride lipage; details: literature; cited from earlier work
# [2] = molecular target: cholesterol esterase from rat; details: Borgstrom 1988; water soluble artificial and colorimetric substrates; cited from earlier work
# [3] = molecular target: human 100 kDa cholesterol esterase; assay: Inhibition of triolein hydrolysis by human 100 kDa cholesterol esterase; assay type: biochemical; details: Table 3; triolein as substrate
# Protocol: Alginic acid from Macrocystis pyrifera (kelp) was dissolved in water at a concentration of 1 mg/ml. This stock solution was used to prepare various polysaccharide concentrations down to 10^-5 mg/ml. Human pancreatic cholesterol esterase was purified as described by Bosner et al., Proc. Nat'l, Acad, Sci., 85, 7438 (1988). To measure cholesterol esterase inhibition by alginic acid, 50 μl of cholesterol esterase (10 μg/ml), 75 μl of phosphatidylcholine vesicles containing cholesteryl ^14 C-oleate (1 mM 2,000 CPM/nmole), 25 μl of 100 mM taurocholate, 120 μl of 150 mM Tris, pH 7.5 and 30 μl of test alginic acid solution were incubated at 37° C. for fifteen minutes. The assay was quenched by placing the reaction vessels in a 4° C. ice bath and by adding 0.6 ml of 0.3 N NaOH and 3 ml of benzene/chloroform/methanol (1.0/1.2/0.5). The quenched reactions were vortexed for 30 seconds, centrifuged at 3,000 g for 15 minutes and 1 ml of the upper aqueous phase was added to 7 ml of Aquasol-2 (DuPont) with 0.025 ml of 6 N HCl. These mixtures were vortexed for one minute and counted for ^14 C-oleate. The counts were compared to a sample which contained cholesterol esterase but no alginic acid to determine the percentage of inhibition.
# (The same assay procedure was used as described in Part I, only triolein was used instead of cholesteryl oleate.) As shown in the table below, the IC50 for inhibition of triolein hydrolysis is nearly the same as that for cholesteryl oleate hydrolysis.
# [4] = molecular target: T1, Human pancreatic cholesterol esterase (Homo sapiens, UniProt P19835); assay: Inhibition of human pancreatic cholesterol esterase, cholesteryl 14C-oleate hydrolysis; assay type: biochemical
# T1 construct: Human pancreatic cholesterol esterase was purified as described by Bosner et al; from tissue; host or cells: human pancreas (purified to homogeneity)
# T1 sequence (P19835 21-753): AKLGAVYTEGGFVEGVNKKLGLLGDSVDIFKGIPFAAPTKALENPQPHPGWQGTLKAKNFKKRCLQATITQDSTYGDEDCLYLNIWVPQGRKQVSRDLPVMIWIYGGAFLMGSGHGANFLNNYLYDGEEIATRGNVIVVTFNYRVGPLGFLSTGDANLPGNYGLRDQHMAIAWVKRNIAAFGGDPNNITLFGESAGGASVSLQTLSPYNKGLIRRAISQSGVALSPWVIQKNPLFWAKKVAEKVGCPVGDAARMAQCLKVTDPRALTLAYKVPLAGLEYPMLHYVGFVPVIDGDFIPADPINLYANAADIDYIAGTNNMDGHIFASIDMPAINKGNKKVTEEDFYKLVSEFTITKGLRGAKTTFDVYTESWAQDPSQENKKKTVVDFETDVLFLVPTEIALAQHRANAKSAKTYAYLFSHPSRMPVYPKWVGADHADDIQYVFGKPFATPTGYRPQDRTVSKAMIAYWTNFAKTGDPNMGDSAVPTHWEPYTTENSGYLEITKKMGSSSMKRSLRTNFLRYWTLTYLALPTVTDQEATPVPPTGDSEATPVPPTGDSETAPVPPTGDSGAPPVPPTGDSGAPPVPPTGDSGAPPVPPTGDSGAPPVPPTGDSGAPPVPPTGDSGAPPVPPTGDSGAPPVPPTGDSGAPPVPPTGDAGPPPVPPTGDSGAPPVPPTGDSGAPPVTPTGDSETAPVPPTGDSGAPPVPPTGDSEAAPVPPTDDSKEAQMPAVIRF
# Protocol: Human pancreatic cholesterol esterase was purified as described by Bosner et al., Proc, Natl. Acad. Sci,, 85, 7438 (1988). To measure pancreatic cholesterol esterase inhibition by sulfated agar, 50 μl of pancreatic cholesterol esterase (10 μg/ml), 75 μl of phosphatidylcholine vesicles containing cholesteryl ^14 C-oleate (1 mM 2,000 CPM/nmole), 25 μl of 100 mM taurocholate, 120 μl of 150 mM Tris, pH 7.5 and 30 μl of test sulfated agar solution were incubated at 37° C. for fifteen minutes. The assay was quenched by placing the reaction vessels in a 4° C. ice bath and by adding 0.6 ml of 0.3 N NaOH and 3 ml of benzene/chloroform/methanol (1.0/1.2/0.5). The quenched reactions were vortexed for 30 seconds, centrifuged at 3,000 g for 15 minutes and 1 ml of the upper aqueous phase was added to 7 ml of Aquasol-2 (DuPont) with 0.025 ml of 6 N HCl. These mixtures were vortexed for one minute and counted for ^14 C-oleate. The counts were compared to a sample which contained cholesterol esterase but no sulfated agar to determine the percentage of inhibition.
# cholesterol esterase [5] = assay: Inhibition of cholesterol oleate hydrolysis by rabbit pancreatic cholesterol esterase; assay type: biochemical; details: enzyme from rabbit pancreas
# Description: (§1) These sulfated polysaccharides are also inhibitors of animal pancreatic cholesterol esterase.
# cholesterol esterase [6] = assay: Stability under baking conditions: cholesterol esterase inhibition by muffin supernatant; details: retention of inhibitory activity
# Protocol: The sulfated polysaccharides described here retain their inhibitory activity for prolonged periods at elevated temperatures. […] For example, 109 mg of cellulose sulfate were added to 198 gm (7 oz) of corn muffin mix (Gold Medal,) and the solid ingredients were thoroughly mixed together. After the addition of one egg and one third cup milk, the muffin mix was stirred fifteen times. The mixture was poured into nine muffin tins and baked for fifteen minutes in a 400° oven. The next day one muffin was broken up, added to 100 ml of water and allowed to stand for fifteen minutes. The mixture was centrifuged and the clear supernatant was assayed for the presence of cholesterol esterase inhibition. The IC50 of this solution was achieved when this solution was diluted 10^3 -10^4 times.
# [7] = Serum radiolabeled cholesterol in rabbit fed cellulose sulfate chow; assay type: in vivo, New Zealand White rabbit; details: chow with 0.5% cellulose sulfate
# Description: A New Zealand White rabbit was maintained on regular rabbit chow. Two days before the experiment began the animal was fed chow to which cellulose sulfate had been added to give a final concentration of 0.5%. After 12 hrs. on regular chow then, the experiment began with the administration of ^14 C-cholesteryl oleate as described above. The animal was then allowed to eat and drink regular chow in a normal manner. Blood samples were withdrawn from an ear vein and the radiolabeled cholesterol measured by scintillation counting. […] In contrast, in the control animal, label appears only two hours after its administration.
# cholesterol esterase [8] = assay: Inhibition of cholesterol oleate hydrolysis by pig pancreatic cholesterol esterase; assay type: biochemical; details: enzyme from pig pancreas
# Description: as §1
# cholesterol esterase [9] = assay: Inhibition of cholesterol oleate hydrolysis by cow pancreatic cholesterol esterase; assay type: biochemical; details: enzyme from the cow
# Description: as §1
# [10] = tested on: Colonic adenocarcinoma cells (CaCo-2); assay: Cholesterol esterase catalyzed cholesterol uptake by CaCo-2 cells; assay type: cell-based; details: CaCo-2, bovine 72 kDa cholesterol esterase
# Protocol: Colonic adenocarcinoma cells (CaCo-2, American Type Culture Collection) were grown to a density of 2×10^6 cells on […] coverslips in Dulbecco's Moditied Eagle's Medium containing 10% (v/v) lipoprotein depleted serum. The coverslips were washed with phosphate buffered saline (PBS) and transferred to 35 mm wells containing 1.0 ml PBS, 2 mM taurocholate and 1% bovine serum albumin. The cells were then incubated at 37° C. with 0.01 uCi of ^3 H cholesterol and 0.01 uCi of ^14 C-cholesteryl oleate, which were embedded in phosphatidylcholine vesicles. The control wells received no cholesterol esterase while the experimental set received bovine 72 kDa cholesterol esterase. At various incubation times the coverslips were removed, washed three times with PBS, and the cells were collected by scraping and washing with 250 mM tris glycine buffer (pH 8.8) containing 0.1% SDS. The cells were collected by centrifugation and the pellet was heated at 100° C. for five minutes and then sonicated for ten minutes. The uptake of cholesterol, either from free sterol or from cholesteryl oleate, was determined by scintillation counting for ^3 H or ^14 C, respectively.
# [11] = In vivo cholesterol uptake in cholesteryl oleate fed rabbit, nasogastric dosing
# Protocol: Inhibition of cholesterol uptake from either free cholesterol or from cholesteryl oleate was examined in vivo using cellulose sulfate. A rabbit which had been fed cholesteryl oleate for six weeks was fasted for twelve hours and a nasogastric cube was inserted into its stomach. Five ml of a cellulose sulfate solution (100 mg/ml) in Tris buffer were added followed by 10 ml of 20 uCi of ^3 H cholesterol incorporated in phosphatidylcholine vesicles and 10 ml of 20 uCi of ^14 C cholesteryl oleate. The nasogastric tube was then flushed with an additional 5 ml of cellulose sulfate solution (100 mg/ml). After the tube was removed, blood was drawn from an ear vein as a function of time and 100 μl of plasma was counted for ^14 C and ^3 H. As shown, cellulose sulfate inhibited by 85% the uptake of either free cholesterol or cholesterol derived from cholesteryl oleate (FIG. 5).
# cholesterol esterase [12] = assay: Inhibition of cholesterol oleate hydrolysis by rat pancreatic cholesterol esterase; assay type: biochemical; details: enzyme from rat pancreas
# Description: as §1
# cholesterol esterase [13] = details: Bosner et al., 1988; cited from earlier work
# [14] = Table 3, cholesteryl oleate as substrate, read-out: IC50 (nM) Cholesteryl Oleate
# [15] = cholesteryl oleate hydrolysis, molar value based on assumed polymer molecular weight, read-out: IC50
molecule,measurement,setting,value
CCCCCCCCCCC[C@@H](C[C@@H]1OC(=O)[C@H]1CCCCCC)OC(=O)[C@H](CC(C)C)NC=O [tetrahydrolipstatin],Ki,[1],100 nM
same,Ki,[2],100000 nM
Alginic acid [reference compound],IC50,[3],42 nM
same,IC50,"[4]; Table 1, read-out: IC50",20 nM
same,Enhancement Factor,"[4]; Table 1, relative to alginic acid",1.0
same,IC50,[4]; [14],20 nM
same,IC50,[4]; cholesteryl oleate hydrolysis,4 µg/mL
same,IC50,[4]; [15],20 nM
Cellulose Sulfate,inhibition of cholesterol oleate hydrolysis,cholesterol esterase [5],inhibits
same,stability at elevated temperatures / baking conditions,cholesterol esterase [6],stable under baking conditions
same,time until cholesterol appears in serum after administration of the label,[7],four
same,reduction of level of serum cholesterol compared to control rabbit,"[7]; 14C-cholesteryl oleate label, FIG. 7",50%
same,inhibition of cholesterol oleate hydrolysis,cholesterol esterase [8],inhibits
same,Ki,cholesterol esterase [9],100 nM
same,IC50,[3],0.06 nM
same,uptake of cholesterol derived from cholesteryl oleate by the cells,[10]; FIG. 4a,markedly inhibits cholesterol uptake
same,uptake of free cholesterol by the cells,[10]; FIG. 4b,markedly inhibits cholesterol uptake
same,inhibition of uptake of free cholesterol,"[11]; rabbit, nasogastric cellulose sulfate 100 mg/ml, 3H cholesterol in plasma, FIG. 5",85%
same,inhibition of uptake of cholesterol derived from cholesteryl oleate,"[11]; rabbit, nasogastric cellulose sulfate 100 mg/ml, 14C in plasma, FIG. 5",85%
same,absorption of free cholesterol,[11]; rabbits,decreases absorption of free cholesterol
same,decrease of cholesterol absorption,[11]; rabbits fed cholesterol oleate,over 70%
same,inhibition of cholesterol oleate hydrolysis,cholesterol esterase [12],inhibits
same,IC50,"[4]; Table 2, read-out: IC50",0.02 nM
same,IC50,[4]; [14],0.02 nM
same,IC50,[4]; [15],0.02 nM
Chitin Sulfate,IC50,[3],0.35 nM
same,IC50,"[4]; Table 2, read-out: IC50",0.16 nM
same,IC50,[4]; [14],0.3 nM
same,IC50,[4]; [15],0.3 nM
Chitosan Sulfate,IC50,[3],0.85 nM
same,IC50,"[4]; Table 2, read-out: IC50",0.16 nM
same,IC50,[4]; [14],0.3 nM
same,IC50,[4]; [15],0.3 nM
chondroitan sulfate,interaction with cholesterol esterase,cholesterol esterase [13],does not interact with cholesterol esterase
"pectin [native, unsulfated pectin, reference compound]",inhibition of cholesterol esterase (in words),[4]; hydrolysis of cholesterol esters,does not inhibit cholesterol esterase
